# Laboratory results as given in patent US20090022803A1, “Oral Formulations For Delivery of Catecholic Butanes Including Ndga Compounds” (priority 2005, published 2009).
# Read-outs that look alike come from different tables or passages of the source.
# Type: physicochemical
# Experimental: A 10 mL solution of M4N at a concentration of about 10 mg/mL in 40% BP-β-CD was made as follows. About 10 mL of the 40% HP-β-CD solution were added to a glass beaker containing a stir bar. The beaker was placed on a magnetic plate and the stir bar was set to stir at medium speed. About […] of M4N were slowly added to the 40% HP-β-CD in the center of the beaker with the aid of a spatula. The M4N/40% HP-β-CD mixture was stirred for 2 hr or until all M4N was uniformly suspended without any clumps being present. The M4N/40% HP-β-CD mixture was optionally heated at 80° C. for about 30 min. (or longer if a larger volume of solution was desired, for example, 1 hr at 80° C. for 100 mL of the M4N/HP-β-CD mixture), or longer as needed to ensure complete dissolution of M4N. […] The final M4N/40% HP-β-CD solution was stored at room temperature and was kept protected from light. This process may be scaled up or down to obtain the requisite volume or concentration of M4N. Formulations containing M4N in other cyclodextrin solutions may be similarly made, such as, for example, by substituting HP-β-CD in the process described above with other cyclodextrins. […]
# A 10 mL solution of M4N at a concentration of about 10 mg/mL in 50% HP-β-CD/0.5% HPMC was made as follows. About 10 mL of the 50% HP-β-CD/0.5% HPMC solution were added to a glass beaker containing a stir bar. The beaker was placed on a magnetic plate and the stir bar was set to stir at medium speed. About 100 mg of M4N were slowly added to the 50% HP-β-CD/0.5% HPMC in the center of the beaker with the aid of a spatula. The M4N/50% HP-β-CD/0.5% HPMC mixture was stirred for 24 hr or until all M4N was uniformly suspended without any clumps being present. The M4N/50% HP-β-CD/0.5% HPMC mixture was heated at about 90° C. for about 30 min. (or longer if a larger volume of solution was desired, for example, 1 hr at 90° C. for 500 mL of the M4N/50% HP-β-CD/0.5% HPMC mixture), or longer as needed to ensure complete dissolution of M4N. […] The final M4N/50% HP-β-CD/0.5% HPMC solution was stored at room temperature and was kept protected from light.
# A 10 mL solution of M4N at a concentration of about 20 mg/mL in 5% EC (w/v) (the “EC formulation”) was made as follows. About 10 mL of 5% EC formulation, made as described above, were added to a glass beaker containing a stir bar. The beaker was placed on a magnetic plate and the stir bar was set to stir at medium speed, and covered with a round Teflon® cover. About 200 mg of M4N were slowly added to the 5% EC formulation in the center of the beaker with the aid of a spatula to prevent M4N from sticking to the beaker wall. The M4N/EC mixture was stirred for 2 hr or until all M4N had dissolved or was uniformly suspended without any clumps being present. The M4N/EC mixture was heated at about 60° C. for about 30 min. (or longer if a larger volume of solution was desired, for example, 1 hr at 60° C. for 500 mL of the M4N/EC mixture), or longer as needed to ensure complete dissolution of M4N. […] The final M4N/EC solution was stored at room temperature and was kept protected from light.
# A 10 mL solution of M4N at a concentration of about 50 mg/mL in sesame oil was made as follows. About 10 mL of sesame oil were added to a glass beaker containing a stir bar. The beaker was placed on a magnetic plate and the stir bar was set to stir at medium speed. About 500 mg of M4N were slowly added to the sesame oil in the center of the beaker with the aid of a spatula to prevent M4N from sticking to the beaker wall. The M4N/sesame oil mixture was stirred for about 2 hr or until all M4N had dissolved or was uniformly suspended without any clump being present. The M4N/sesame oil mixture was heated at about 60° C. for about 30 min. (or longer if a larger volume of solution was desired, for example, 1 hr at 60° C. for 500 mL of the M4N/sesame oil mixture), or longer as need to ensure complete dissolution of M4N. […]
# [1] = M4N 10 mg/mL in 32% HP-β-CD, 20% PEG 400 (v/v)
# [2] = M4N 10 mg/mL in 40% HP-β-CD, 1% PVP (w/v)
# [3] = M4N 10 mg/mL in 40% HP-β-CD, 5% PEG 400 (v/v)
# [4] = M4N 10 mg/mL in 50% HP-β-CD in saline
# [5] = M4N 10 mg/mL in 50% HP-β-CD, 0.5% HPMC
# [6] = M4N 10 mg/mL in 50% HP-β-CD, 1.25% PVP (w/v)
# [7] = M4N 12.5 mg/mL in 12.5% HP-β-CD, 50% PEG 300 (v/v)
# [8] = M4N 12.5 mg/mL in 12.5% HP-β-CD, 50% PEG 400 (v/v)
# [9] = M4N 12.5 mg/mL in 15% HP-β-CD, 50% PEG 300 (v/v)
# [10] = M4N 12.5 mg/mL in 15% HP-β-CD, 50% PEG 400 (v/v)
# [11] = M4N 12.5 mg/mL in 20% HP-β-CD, 50% PEG 300 (v/v)
# [12] = M4N 12.5 mg/mL in 20% HP-β-CD, 50% PEG 400 (v/v)
# [13] = M4N 12.5 mg/mL in 30% HP-β-CD, 25% PEG 400 (v/v)
# [14] = M4N 12.9 mg/mL in 23% HP-β-CD, 43% PEG 400 (v/v)
# [15] = M4N 12.9 mg/mL in 23% HP-β-CD, 43 PEG 300 (v/v)
# [16] = M4N 13.3 mg/mL in 27% HP-β-CD, 33% PEG 300 (v/v)
# Wherever Dissolution After Cool Down is given: key: N represents 'No'; Y represents 'Yes.'.
structure (smiles),measurement,setting,value
"COc1ccc(C[C@@H](C)[C@@H](C)Cc2ccc(OC)c(OC)c2)cc1OC [Formulation M4N, meso-1,4-bis(3,4-dimethoxyphenyl)-2,3-dimethylbutane]",Dissolution After Cool Down,[1],Y
same,Dissolution After Rotation,[1],N
same,Dissolution After Heating at X° C.,"M4N 10 mg/mL in 32% HP-β-CD, 20% PEG 400 (v/v), 60°",Y at 60°
same,Dissolution After Cool Down,M4N 10 mg/mL in 40% HP-β-CD,Y
same,Dissolution After Rotation,M4N 10 mg/mL in 40% HP-β-CD,N
same,Dissolution After Heating at X° C.,[2],N
same,Dissolution After Rotation,[2],N
same,Dissolution After Rotation,"M4N 10 mg/mL in 40% HP-β-CD, 2.5% PG (v/v)",N
same,Dissolution After Heating at X° C.,"M4N 10 mg/mL in 40% HP-β-CD, 2.5% PG (v/v), 80°",N at 80°
same,Dissolution After Cool Down,[3],N
same,Dissolution After Rotation,[3],N
same,Dissolution After Heating at X° C.,"M4N 10 mg/mL in 40% HP-β-CD, 5% PEG 400 (v/v), 60°",Y at 60°
same,Dissolution After Heating at X° C.,"M4N 10 mg/mL in 40% HP-β-CD, 80°",Y at 80°
same,Dissolution After Cool Down,M4N 10 mg/mL in 50% HP-β-CD,Y
same,Dissolution After Rotation,M4N 10 mg/mL in 50% HP-β-CD,N
same,Dissolution After Cool Down,[4],Y
same,Dissolution After Rotation,[4],N
same,Dissolution After Heating at X° C.,"M4N 10 mg/mL in 50% HP-β-CD in saline, 90°",Y at 90°
same,Dissolution After Cool-Down,[5],Y
same,Dissolution After Rotation,[5],N
same,Dissolution After Rotation,"M4N 10 mg/mL in 50% HP-β-CD, 0.5% HPMC, other experiment, no heat",Suspension
same,Dissolution After Heating at X° C.,[6],N
same,Dissolution After Rotation,[6],N
same,Dissolution After Heating at X° C.,"M4N 10 mg/mL in 50% HP-β-CD, 90°",Y at 90°
same,Dissolution After Cool-Down,M4N 10 mg/mL in Corn Oil,Y
same,Dissolution After Cool-Down,M4N 10 mg/mL in Mineral Oil,Y
same,Dissolution After Cool-Down,M4N 10 mg/mL in Soybean Oil,Y
same,Dissolution After Rotation,M4N 12 mg/mL in 40% HP-β-CD,N
same,Dissolution After Heating at X° C.,"M4N 12 mg/mL in 40% HP-β-CD, 80°",N at 80°
same,Dissolution After Cool Down,[7],Y
same,Dissolution After Rotation,[7],N
same,Dissolution After Heating at X° C.,"M4N 12.5 mg/mL in 12.5% HP-β-CD, 50% PEG 300 (v/v), 60°",Y at 60°
same,Dissolution After Cool Down,[8],Y
same,Dissolution After Rotation,[8],N
same,Dissolution After Heating at X° C.,"M4N 12.5 mg/mL in 12.5% HP-β-CD, 50% PEG 400 (v/v), 60°",Y at 60°
same,Dissolution After Cool Down,[9],Y
same,Dissolution After Rotation,[9],N
same,Dissolution After Heating at X° C.,"M4N 12.5 mg/mL in 15% HP-β-CD, 50% PEG 300 (v/v), 60°",Y at 60°
same,Dissolution After Cool Down,[10],Y
same,Dissolution After Rotation,[10],N
same,Dissolution After Heating at X° C.,"M4N 12.5 mg/mL in 15% HP-β-CD, 50% PEG 400 (v/v), 60°",Y at 60°
same,Dissolution After Cool Down,[11],Y
same,Dissolution After Rotation,[11],N
same,Dissolution After Heating at X° C.,"M4N 12.5 mg/mL in 20% HP-β-CD, 50% PEG 300 (v/v), 60°",Y at 60°
same,Dissolution After Cool Down,[12],Y
same,Dissolution After Rotation,[12],N
same,Dissolution After Heating at X° C.,"M4N 12.5 mg/mL in 20% HP-β-CD, 50% PEG 400 (v/v), 60°",Y at 60°
same,Dissolution After Cool Down,[13],Y
same,Dissolution After Rotation,[13],N
same,Dissolution After Heating at X° C.,"M4N 12.5 mg/mL in 30% HP-β-CD, 25% PEG 400 (v/v), 60°",Y at 60°
same,Dissolution After Cool Down,[14],Y
same,Dissolution After Rotation,[14],N
same,Dissolution After Heating at X° C.,"M4N 12.9 mg/mL in 23% HP-β-CD, 43% PEG 400 (v/v), 60° C.",Y at 60 °C
same,Dissolution After Cool Down,[15],Y
same,Dissolution After Rotation,[15],N
same,Dissolution After Heating at X° C.,"M4N 12.9 mg/mL in 23% HP-β-CD, 43 PEG 300 (v/v), 60°",Y at 60°
same,Dissolution After Cool Down,[16],Y
same,Dissolution After Rotation,[16],N
same,Dissolution After Heating at X° C.,"M4N 13.3 mg/mL in 27% HP-β-CD, 33% PEG 300 (v/v), 60°",Y at 60°
